From patent US20160235677A1, “METHOD OF CONVERTING A CRYSTALLINE COMPOUND TO AN AMORPHOUS COMPOUND, METHOD OF INCREASING THE SOLUBILITY OF A CRYSTALLINE COMPOUND IN A BIORELEVANT FLUID, AND NANOPARTICLES THAT ACHIEVE SUPERSATURATION” (Nanocopoeia, LLC., priority 2014, published 2016) come the findings set out here.

The nature of data set [1]: Dissolution in Biorelevant Medium Using Non-Sink Condition (griseofulvin powders in FaSSIF). The class given is physicochemical. The note with it: GF dissolution in FaSSIF, 5 hour experiment. On the procedure: A modified low-volume shaker flask method is used to assess the dissolution behavior of samples under supersaturated conditions. A 75 mL aliquot of FaSSIF, adjusted to pH 6.5, is added to each of six 150 mL Erlenmeyer flasks, which are then stoppered. The liquid is then heated to and maintained at 37° C.±1° C. using a benchtop incubated orbital shaker with a multi position stir plate (Forma Scientific 4520, Thermo Fisher Scientific, Waltham, Mass.). A 38 mm×9 mm stir bar is placed in each flask and stirring is started at 150 rotations per minute (RPM). A control sample, containing the compound of interest, and experimental samples are added to separate flasks in amounts sufficient to provide an amount of the compound of interest equivalent to the control sample. At each of 5 min, 15 min, 20 min, 30 min, 45 min, 60 min, 120 min, 240 min, and 300 min, 3 mL of dissolution media is removed from each flask, and immediately filtered through a 13 mm, 0.2 μm nylon filter with glass prefilter (EMD Millipore, Billerica, Mass.) after first discarding the first 2 mL of the sample. […]
The HPLC analysis is performed using an Ace C18, 2.1×150 mm, 3 μm chromatographic column maintained at 30° C. […] Quantification is performed based on linear calibration curve ranging from 10 ng/mL to 1000 ng/mL using peak response ratio.
For the Dissolution in Biorelevant Medium Using Non-Sink Condition analysis, a 24 mg sample of Control 1, i.e., griseofulvin powder, and an amount of Examples 1-7 sufficient to provide an amount of griseofulvin equivalent to the amount of Control 1, i.e., 24 mg, was added to each flask. Quantification was performed based on linear calibration curve ranging from 10 to 1000 ng/mL using peak response ratio. […]
Dry powder produced as describe above in Examples 8-11 was evaluated in the biorelevant medium FaSSIF, comparing ENS-processed powders with physical mixtures at similar ratios of GF:SP. […]

The nature of data set [2]: Equilibrium / saturation solubility in test media. The class given is physicochemical. As to conditions: GF, previously measured.
A short description of data set [3]: X-Ray Powder Diffraction (XRD) crystallinity / physical state. The class given is physicochemical. The note with it: griseofulvin materials, result in words. On the procedure:
X-ray powder diffraction is performed at room temperature using a Bruker D8 Discover using a Cu Kα radiation, point source filtered with a graphite monochromator and a Bruker Hi-Star two-dimensional x-ray detector (Bruker, Karlsruhe, Germany). Powder samples are pressed onto a sample holder made of single-crystal quartz cut off-axis. The reflected intensity is collected at 0.04° resolution from 2Θ=2° to 62° with an acquisition time of 20 minutes. Data analysis is performed using the JADE 8.0 software package (Materials Data Inc., Livermore, Calif.) with whole pattern fitting. The test method has a detection limit of 2% crystallinity. […]

A short description of data set [4]: Caco-2 Monolayer Test Method. Format: in vitro ADME. As to conditions: human; Caco-2 monolayers, apical to basolateral, powder equivalent to 200 μg GF in 1 mL buffer pH 7.4, 2 h. On the procedure:
Caco-2 monolayers are prepared in Millipore 96-cell Caco-2 plates and are used after a 3-week differentiation period. The monolayers separate the apical, or donor well, from the basolateral, or recipient well. The buffer used for the apical side is 1.98 g/L glucose in 10 mM HEPES, Hank's Balanced Salt Solution (HBSS) lx, with calcium, magnesium, without phenol red (HyClone, Logan, Utah) pH 7.4. The impermeable dye Lucifer yellow (in an amount of 100 μM) is added to test monolayer integrity. The basolateral side buffer is buffer, pH 7.4, without dye. […] The amount of test powder is selected to assure that if the powder was completely dissolved, the amount is sufficient to achieve ˜12 to 13 times the saturation concentration of the compound of interest previously measured in HBSS (15 μg/mL), in other words, a supersaturated solution. […] Where the compound of interest is not a substrate for p-glycoprotein (pGP), B→A efflux is not measured.
Buffer test samples are added to apical wells at 1 h after preparation and buffer alone is added to the basolateral side. […] The plates are assumed to be intact if there is no increase in fluorescence from leaking Lucifer yellow dye from the apical side. Individual cell monolayers are assumed intact if there is no increase in fluorescence in aliquots taken from the basolateral wells. […]

Setting [5] is: non-sink, 24 mg GF equivalent in 75 mL, 37° C.

Converted amounts (≈) assume the structure as drawn. Where two headings read alike, the source gives them in different places.

For orientation: Cmax means the highest concentration seen after dosing. The term Tmax denotes the time from dosing to the highest level. The Papp A→B is how fast a substance crosses the layer from the apical side. In the case of `COC1=CC(=O)C[C@@H](C)[C@]12Oc1c(Cl)c(OC)cc(OC)c1C2=O` [Control 1, (+)-griseofulvin], in data set [1] (setting [5]), the “Cmax” value was 18300 ng/mL and the “Tmax” value was 30 min. In addition, the AUC in data set [1] (area under the concentration-time curve) was 5,202. Also, the solubility thermodynamic in data set [2] (HBSS, saline or isotonic, read-out: saturation concentration in HBSS) is 15 µg/mL (≈ 42.5 µM). Also, the solubility thermodynamic in data set [2] (water, thermodynamic from solid, read-out: equilibrium solubility in water) lay within 6 to 10 µg/mL (≈ 17 to 28.3 µM). Further, in data set [3], the “physical state by XRD” value is given as “completely crystalline material”. Moreover, the Papp A→B at 2 h, 200 μg/mL in data set [4] was found to be 28 ± 2.5 ×10⁻⁶ cm/s.
